Experimental data taken from US9879036B2, “Mitochondrial aldehyde dehydrogenase-2 binding compounds and methods of use thereof” (Aviv Therapeutics, Inc., priority 2014, dated 2018).
“Also recorded” adds a separate entry of the source.

Test system: FANCA deficiency lymphocyte cell line (FANCA B-lymphocyte, GM13022)
Experiment: Proliferation of FANCA deficient lymphocytes under 4 HNE challenge (alamarBlue)
Assay type: cell-based
Description: FANCA deficiency lymphocyte cell line (Fanconi Anemia, Complementation Group A, FANCA B-lymphocyte, GM13022) was purchased from Coriell Cell Repositories (403 Haddon Ave, Camden, N.J. 08103).
Standard cell culture conditions were used in this experiment. The culture medium (CM) consisted of culture medium RPMI1640, 15% heat-inactivated FBS, 2 mM L-glutamine, 1% Pen/Strep. Cells were suspended in 10-20 ml CM in T25 tissue culture flask in an upright position and incubated in a 37° C., 5% CO2 incubator. Cells were counted daily and diluted with fresh CM to 3×10^5 cells/ml. Cells thawed and maintained in culture for 3-12 days were used in these studies.
Cell densities of FANCA lymphocytes were determined and cells were diluted in RPMI1640 medium containing 15% FBS, 2 mM L-glutamine, 1% Pen/Strep to desired cell density. 4000 cells in 50-75 μl were plated onto each well in total 48 wells in columns 3-10 and rows B-G. This plating arrangement provided 6-replicates per column for each experimental condition. Plate was then centrifuged at 500 rpm for 2 min to ensure better distribution of cells across the well. For background medium controls, equal volume (50-75 μl) of dilution medium were added to wells B2, C2, D2.
For minimizing cells/medium drying in sample wells, 150 μl of 1×DPBS was added to each well of the 45 wells surrounding the sample and control wells. Plate was then incubated in a 37° C. 5% CO2 incubator for at least 4 hours before addition of new reagent.
Compounds were diluted from 20 mM stocks in DMSO with RPMI1640 medium containing 15% FBS. RPMI1640 medium containing 15% FBS and corresponding volume of DMSO was used as controls.
4 HNE (64 mM in 100% ethanol) was diluted to desired concentrations with RPMI1640 base medium.
AlamarBlue was added to each well to final 9.1 or 10% of the total volume in each well. Plate was further incubated in the 37° C. 5% CO2 incubator. The alamarBlue assay is designed to measure quantitatively the proliferation of human and animal cell lines in culture versus incubation time period.
Plate was removed from the CO2 incubator at a pre-designated time and placed in the microplate reader. The fluorescence level in each well was monitored at Ex 554 nm and Em 590 nm. Afterwards the numeric numbers/units were used for data analyses.
Fluorescence units in all wells were acquired by the microplate reader at each time point. Data were then exported to scientist's computer equipped with SoftMax ProS software. The average of Background units (Blk, 3×) and the average of each sample set (6 replicates) were determined. For data collected at each time point (cell culture incubation period), the average of Blk units were subtracted from the average of each set of the Sample units. These “net fluorescence unit” data were then presented in a plot consisted of different culture incubation time periods (the x-axis) versus the corresponding net fluorescence units (y-axis).
The “net fluorescence units” of each sample set were also compared to those of the “control” at each time point. “Control fluorescence units” were considered to be 100% at all the time points. Each set of “net fluorescence units” were divided by the “Control fluorescent units” and multiplied by 100 to obtain corresponding percentages. These “relative percentage” data were then presented in a plot consisted of time points (the x-axis) versus the corresponding relative percentages to control of 100 (y-axis).
The inhibitory effect of 4 HNE on the proliferation of FANCA lymphocytes was examined. 4000 cells in 75 μl of RPMI1640 medium containing 15% FBS were plated onto each sample well in a 96-well poly D-lysine coated black/clear cell culture plate and the plate was incubated in a 37° C. 5% CO2 incubator for 7 hours.
Stock of 4 HNE at 64 mM was diluted with RPMI1640 medium to 10 μM, 20 μM, 30 μM, 40 μM, 60 μM, 80 μM, and 120 μM. […]

SMILES: COc1ccc(CNC(=O)c2cc(-c3ncccc3CO)ccc2OCC2CC2)cc1F [AC6]
- duration of cell-protective / cell growth promoting effect in FANCA cells: at least 48 hours
- relative cell proliferation versus control without AC compounds (3.5 μM 4 HNE, 5 μM and 10 μM AC6, 10 μM AC32, 25 hours to 48 hours after 4 HNE treatment): higher levels of cell growth than “control”; also recorded: more efficient growth than control
- cell proliferation rate (10 μM AC6, 6 μM 4 HNE, between 25 and 48 hours after 4 HNE treatment): an increase in the cell proliferation rate
- FANCA-deficiency lymphocyte cell growth versus 4 HNE only or 2 μM ALDH2 activators (10 μM compound, pretreatment 2 hours before 6 μM 4 HNE challenge): higher levels of cell growth
- FANCA-deficiency lymphocyte cell growth versus 4 HNE only (pretreatment 2 hours before 3.5 μM 4 HNE challenge, 2 to 10 μM compound): higher levels of cell growth; also recorded: higher efficacy than AC32
